Assays:
Type in all cases: physicochemical
[1] = Binding of minocycline HCl to Hydroxysomes and release (pH dependence); conditions: for pH at which minocycline attaches (binds) to Hydroxysomes: binding suspension in water, shaken 30 min, monohydrochloride
Procedure: Hydroxysomes® (calcium phosphate particles, Laboratory Skin Care, San Carlos, Calif.) were suspended in water. […] The final pH of the suspension was adjusted to 6.2 to 8.0 with add. The binding suspension was mixed by shaking for 30 min. The binding suspensions were centrifuged at 10,000 rpm for 10 min in the bench top microcentrifuge. The supernatants were analyzed with the Shimadzu spectrophotometer to quantify the free minocycline. The bound minocycline was calculated by subtracting the amount of the minocycline detected in the supernatant, from the total initial amount in the binding suspension. The total initial minocycline absorbance at the binding pH was calculated from the linearity equation of the standard plot. • Controls: Minocycline solution at the same pH with the same concentration as in the binding mixture. D. Example Formulation

[2] = Minocycline stability in water, 6 days at room temperature, HPLC of supernatant; conditions: capped glass vial
Excerpt: The vials were then centrifuged and the supernatant analyzed by HPLC.

[3] = Fluorescence of bulk powders under white and UV black light; conditions: 25 mg MNC/g Hydroxysomes

Question: With `CN(C)c1ccc(O)c2c1C[C@H]1C[C@H]3[C@H](N(C)C)C(O)=C(C(N)=O)C(=O)[C@@]3(O)C(O)=C1C2=O.Cl` [Minocycline HCl, 4,7-Bis(dimethylamino) 1,4,4a,5,5a,6,11,12a-octahydro-3,10,12,12a-tetrahydroxy-1,11-dioxo-2-naphthacenecarboxamide monohydrochloride] as the molecule, how does the “pH at which minocycline associated with Hydroxysomes is unstable (releases)” value [1] read?
Answer: acidic pH

Question: And the “pH at which minocycline attaches (binds) to Hydroxysomes” value ([1]; listed as Minocycline)?
Answer: 6.2-8.0

Question: What about the “pH at which minocycline attaches (binds) to Hydroxysomes” value [1] of the same molecule?
Answer: neutral or alkaline pH

Question: And the “degradation by HPLC analysis of supernatant” value [2]?
Answer: substantial degradation

Question: What about the “visible discoloration of vial” value [2] of the same molecule?
Answer: visibly discolored

Question: And the “fluorescence of bulk powder under black light” value [3]?
Answer: Intense yellow-orange fluorescence
